These results are taken from patent US20240342186A1, “PYRIDINE DERIVATIVES WITH N-LINKED CYCLIC SUBSTITUENTS AS cGAS INHIBITORS” (Boehringer Ingelheim International GmbH, priority 2021, published 2024).

The target in test [1] is T1, cGAS (Homo sapiens (Human), UniProt Q8N884). Particulars: groups of page 44/45 of WO 2020/142729; read-out: biochemical (in vitro) IC50 group; cited from earlier work.
Test [2] has as its system cellular cGAS activity in baculovirus-stimulated THP1-Dual cells (IRF dependent Lucia luciferase reporter). The experiment in a line: Human cGAS cell assay: inhibition of IFN induction in virus-stimulated THP1 cells (THP1(vir) IC50). It counts as cell-based. As to conditions: Homo sapiens, THP1-Dual, read-out: THP1(vir) IC50. A digest of the protocol: (§1)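 THP1-Dual cells with IRF-dependent Lucia luciferase reporter, stimulated by empty baculovirus (dsDNA delivery activating cGAS) or, for the counter assay, directly by cGAMP. 5000 cells/well, 8 concentrations from 10 μM top, 1% DMSO, 18 h at 37 °C; luminescence read, IC50 by 4-parameter logistic fit versus unstimulated low control.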

In test [3] the test system is cGAMP-stimulated THP1-Dual cells (pathway directly downstream of cGAS). Put plainly: cGAMP stimulated counter cell assay: inhibition of IFN induction in cGAMP-stimulated THP1 cells (THP1(cGAMP) IC50). It counts as cell-based, human. As to conditions: for IC50: Homo sapiens, THP1-Dual, read-out: THP1(cGAMP) IC50 (converted). A digest of the protocol:
as §1

Test [4] concerns the target T1, cGAS. Put plainly: Human cGAS enzyme assay (hcGAS IC50, in vitro), cGAMP formation by RapidFire MS.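 Note: enzyme activated by 45 bp dsDNA with GTP and ATP (30 µM each), 60 min compound pre-incubation then 90 min reaction, cGAMP relative to cyclic-di-GMP internal standard, 8-point dilutions up to 10 µM.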 Format: biochemical. As to conditions: biochemical (in vitro) cGAS inhibition.
Test [5] deals with cellular cGAS activity in dsDNA-stimulated human whole blood. The experiment in a line: Human whole blood assay (hWB IC50): IFNα2α production after dsDNA transfection. As to conditions: inhibition of IFN induction in dsDNA-stimulated human whole blood. It counts as cell-based. The method, boiled down: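 Citrated blood from healthy donors preincubated 60 min at room temperature with compound (top 10 µM, ~1:5 steps, 0.1% DMSO), then transfected with dsDNA/Fugene and incubated 22 h at 37 °C. Plasma IFNα2α measured by MSD immunoassay; IC50 from 4-parameter fit of % control (stimulated vs unstimulated).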

Read-outs that look alike come from different tables or passages of the source. A value given as a limit tells only on which side of the number the result lay.

T1 sequence (Q8N884 whole entry): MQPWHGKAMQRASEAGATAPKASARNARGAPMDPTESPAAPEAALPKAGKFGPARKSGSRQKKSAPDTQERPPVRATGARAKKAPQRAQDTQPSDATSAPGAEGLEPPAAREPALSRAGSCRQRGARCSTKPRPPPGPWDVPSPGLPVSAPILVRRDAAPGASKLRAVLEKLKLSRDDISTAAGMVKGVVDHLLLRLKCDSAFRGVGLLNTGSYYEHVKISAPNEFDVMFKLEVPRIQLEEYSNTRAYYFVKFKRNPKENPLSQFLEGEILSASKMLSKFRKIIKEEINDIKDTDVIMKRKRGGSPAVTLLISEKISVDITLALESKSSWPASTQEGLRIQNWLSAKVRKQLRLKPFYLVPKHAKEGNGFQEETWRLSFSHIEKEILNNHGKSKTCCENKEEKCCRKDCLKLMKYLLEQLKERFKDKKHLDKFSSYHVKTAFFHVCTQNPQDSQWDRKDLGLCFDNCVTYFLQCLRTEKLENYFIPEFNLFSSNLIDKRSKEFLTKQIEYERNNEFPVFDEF

Regarding `Cc1nc(N2C[C@@H](Cc3nn[nH]n3)C[C@H]2C(=O)O)c2oc3ccccc3c2n1` [Example 25, reference compound], the IC50 is under 0.1 µM in test [1]; 17 µM in test [2] (virus-stimulated THP1 cells); over 17 µM in test [3] (cGAMP-stimulated THP1 cells, counter assay).

As for `C[C@H]1COC[C@H](C)N1c1cc(Br)cnc1O[C@H]1C[C@@H](C(=O)O)N(c2nc(C(F)F)nc3c2oc2ccccc23)C1` [Example 1.26], the half-inhibitory concentration (IC50) is 0.01 µM in test [4], 0.583 µM in test [2] (inhibition of IFN induction in virus-stimulated THP1 cells), 9.93 µM in test [3] (inhibition of IFN induction in cGAMP-stimulated THP1 cells) and 0.475 µM in test [5]. The “Ratio THP1(cGAMP) IC50 / THP1(vir) IC50” value in test [3] (selectivity for cGAS inhibition) was found to be 17.

What is called IC50 is the midpoint of a concentration-inhibition curve.
